Earlier results in patent publication US20130029422A1, “Composite Substrate for 3D Cell Culture” (priority 2011, published 2013).

Conditions: during culture of breast cancer cells

Question: With estrogen as the substance, how does the “extraction from cell culture medium by PDMS-based cell culture articles” value read?
Answer: extract estrogen from cell culture medium
